Assay results as given in PubChem BioAssay (NCI).
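Compound exposure: 48 hours, 5 concentrations, 96-well plates. At the TGI there is no net growth.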

What was measured:
Test in all cases: NCI tumour cell line growth inhibition, 48 h
A549 NSCLC = tested on: A549 NSCLC
ACHN renal = tested on: ACHN renal
BT-549 breast = tested on: BT-549 breast
CAKI-1 renal = tested on: CAKI-1 renal
CCRF-CEM leukemia = tested on: CCRF-CEM leukemia
COLO 205 colon = tested on: COLO 205 colon
DU-145 prostate = tested on: DU-145 prostate
EKVX NSCLC = tested on: EKVX NSCLC
HCC-2998 colon = tested on: HCC-2998 colon
HCT-116 colon = tested on: HCT-116 colon
HOP-62 NSCLC = tested on: HOP-62 NSCLC
HOP-92 NSCLC = tested on: HOP-92 NSCLC
HS 578T breast = tested on: HS 578T breast
HT29 colon = tested on: HT29 colon
IGROV1 ovarian = tested on: IGROV1 ovarian
K-562 leukemia = tested on: K-562 leukemia
KM12 colon = tested on: KM12 colon
LOX IMVI melanoma = tested on: LOX IMVI melanoma
M14 melanoma = tested on: M14 melanoma
MALME-3M melanoma = tested on: MALME-3M melanoma
MCF7 breast = tested on: MCF7 breast
MDA-MB-231 breast = tested on: MDA-MB-231 breast
MDA-MB-435 = tested on: MDA-MB-435
MDA-N = tested on: MDA-N
MOLT-4 leukemia = tested on: MOLT-4 leukemia
NCI-H226 lung = tested on: NCI-H226 lung
NCI-H23 lung = tested on: NCI-H23 lung
NCI-H460 lung = tested on: NCI-H460 lung
NCI-H522 lung = tested on: NCI-H522 lung
NCI/ADR-RES ovarian = tested on: NCI/ADR-RES ovarian
OVCAR-3 ovarian = tested on: OVCAR-3 ovarian
OVCAR-4 ovarian = tested on: OVCAR-4 ovarian
OVCAR-5 ovarian = tested on: OVCAR-5 ovarian
OVCAR-8 ovarian = tested on: OVCAR-8 ovarian
PC-3 prostate = tested on: PC-3 prostate
RPMI-8226 leukemia = tested on: RPMI-8226 leukemia
RXF 393 renal = tested on: RXF 393 renal
SF-268 CNS = tested on: SF-268 CNS
SF-295 CNS = tested on: SF-295 CNS
SF-539 CNS = tested on: SF-539 CNS
SK-MEL-2 melanoma = tested on: SK-MEL-2 melanoma
SK-MEL-28 melanoma = tested on: SK-MEL-28 melanoma
SK-MEL-5 melanoma = tested on: SK-MEL-5 melanoma
SK-OV-3 ovarian = tested on: SK-OV-3 ovarian
SN12C renal = tested on: SN12C renal
SNB-19 CNS = tested on: SNB-19 CNS
SNB-75 CNS = tested on: SNB-75 CNS
SR leukemia = tested on: SR leukemia
SW-620 colon = tested on: SW-620 colon
T-47D breast = tested on: T-47D breast
TK-10 renal = tested on: TK-10 renal
U251 CNS = tested on: U251 CNS
UACC-257 melanoma = tested on: UACC-257 melanoma
UACC-62 melanoma = tested on: UACC-62 melanoma
UO-31 renal = tested on: UO-31 renal
786-0 renal = tested on: 786-0 renal
HCT-15 colon = tested on: HCT-15 colon
HL-60(TB) leukemia = tested on: HL-60(TB) leukemia

For COc1ccc2c(c1)CCN=C2Cc1cc(OC)c(OC)cc1CCCl, the TGI (A549 NSCLC) was greater than 100 µM, the TGI (ACHN renal) was greater than 100 µM and the TGI (BT-549 breast) was greater than 100 µM. The TGI (CAKI-1 renal) was greater than 100 µM, the TGI (CCRF-CEM leukemia) was greater than 100 µM and the TGI (COLO 205 colon) was greater than 100 µM. It also gave a TGI (DU-145 prostate) greater than 100 µM, a TGI (EKVX NSCLC) greater than 100 µM and a TGI (HCC-2998 colon) greater than 100 µM. The TGI (HCT-116 colon) was greater than 100 µM, the TGI (HOP-62 NSCLC) was 49.6 µM and the TGI (HOP-92 NSCLC) was greater than 100 µM. For the same molecule, the TGI (HS 578T breast) was 81.7 µM, the TGI (HT29 colon) was greater than 100 µM and the TGI (IGROV1 ovarian) was greater than 100 µM. The TGI (K-562 leukemia) was greater than 100 µM, the TGI (KM12 colon) was greater than 100 µM and the TGI (LOX IMVI melanoma) was greater than 100 µM. It also gave a TGI (M14 melanoma) greater than 100 µM, a TGI (MALME-3M melanoma) of 73.8 µM and a TGI (MCF7 breast) greater than 100 µM. It also gave a TGI (MDA-MB-231 breast) greater than 100 µM, a TGI (MDA-MB-435) greater than 100 µM and a TGI (MDA-N) greater than 100 µM. It also gave a TGI (MOLT-4 leukemia) greater than 100 µM, a TGI (NCI-H226 lung) greater than 100 µM and a TGI (NCI-H23 lung) greater than 100 µM. For the same molecule, the TGI (NCI-H460 lung) was greater than 100 µM, the TGI (NCI-H522 lung) was 60.1 µM and the TGI (NCI/ADR-RES ovarian) was greater than 100 µM. The TGI (OVCAR-3 ovarian) was greater than 100 µM, the TGI (OVCAR-4 ovarian) was greater than 100 µM and the TGI (OVCAR-5 ovarian) was greater than 100 µM. It also gave a TGI (OVCAR-8 ovarian) greater than 100 µM, a TGI (PC-3 prostate) greater than 100 µM and a TGI (RPMI-8226 leukemia) greater than 100 µM. For the same molecule, the TGI (RXF 393 renal) was 91.4 µM, the TGI (SF-268 CNS) was greater than 100 µM and the TGI (SF-295 CNS) was greater than 100 µM. It also gave a TGI (SF-539 CNS) of 65.7 µM, a TGI (SK-MEL-2 melanoma) greater than 100 µM and a TGI (SK-MEL-28 melanoma) greater than 100 µM. The TGI (SK-MEL-5 melanoma) was 58.9 µM, the TGI (SK-OV-3 ovarian) was greater than 100 µM and the TGI (SN12C renal) was greater than 100 µM. The TGI (SNB-19 CNS) was greater than 100 µM, the TGI (SNB-75 CNS) was greater than 100 µM and the TGI (SR leukemia) was greater than 100 µM. It also gave a TGI (SW-620 colon) greater than 100 µM, a TGI (T-47D breast) greater than 100 µM and a TGI (TK-10 renal) greater than 100 µM. For the same molecule, the TGI (U251 CNS) was greater than 100 µM, the TGI (UACC-257 melanoma) was greater than 100 µM and the TGI (UACC-62 melanoma) was greater than 100 µM. For the same molecule, the TGI (UO-31 renal) was greater than 100 µM.

In the case of O=Cc1c2ccccc2n2ccc3c4ccccc4[nH]c3c12, the TGI (786-0 renal) is reported as greater than 10 µM, the TGI (A549 NSCLC) is reported as greater than 10 µM and the TGI (ACHN renal) is reported as greater than 10 µM. For the same molecule, the TGI (BT-549 breast) was greater than 10 µM, the TGI (CAKI-1 renal) was greater than 10 µM and the TGI (CCRF-CEM leukemia) was greater than 10 µM. For the same molecule, the TGI (COLO 205 colon) was greater than 10 µM, the TGI (DU-145 prostate) was greater than 10 µM and the TGI (EKVX NSCLC) was greater than 10 µM. It also gave a TGI (HCC-2998 colon) greater than 10 µM, a TGI (HCT-116 colon) greater than 10 µM and a TGI (HCT-15 colon) greater than 10 µM. The TGI (HL-60(TB) leukemia) was greater than 10 µM, the TGI (HOP-62 NSCLC) was greater than 10 µM and the TGI (HOP-92 NSCLC) was greater than 10 µM. For the same molecule, the TGI (HS 578T breast) was greater than 10 µM, the TGI (HT29 colon) was greater than 10 µM and the TGI (IGROV1 ovarian) was greater than 10 µM. The TGI (K-562 leukemia) was greater than 10 µM, the TGI (KM12 colon) was greater than 10 µM and the TGI (LOX IMVI melanoma) was greater than 10 µM. The TGI (M14 melanoma) was greater than 10 µM, the TGI (MALME-3M melanoma) was greater than 10 µM and the TGI (MCF7 breast) was greater than 10 µM. For the same molecule, the TGI (MDA-MB-231 breast) was greater than 10 µM, the TGI (MDA-MB-435) was greater than 10 µM and the TGI (MDA-N) was greater than 10 µM. For the same molecule, the TGI (MOLT-4 leukemia) was greater than 10 µM, the TGI (NCI-H226 lung) was greater than 10 µM and the TGI (NCI-H23 lung) was greater than 10 µM. It also gave a TGI (NCI-H460 lung) greater than 10 µM, a TGI (NCI-H522 lung) greater than 10 µM and a TGI (NCI/ADR-RES ovarian) greater than 10 µM. For the same molecule, the TGI (OVCAR-3 ovarian) was greater than 10 µM, the TGI (OVCAR-4 ovarian) was greater than 10 µM and the TGI (OVCAR-5 ovarian) was greater than 10 µM. It also gave a TGI (OVCAR-8 ovarian) greater than 10 µM, a TGI (PC-3 prostate) greater than 10 µM and a TGI (RPMI-8226 leukemia) greater than 10 µM. For the same molecule, the TGI (RXF 393 renal) was greater than 10 µM, the TGI (SF-268 CNS) was greater than 10 µM and the TGI (SF-295 CNS) was greater than 10 µM. It also gave a TGI (SF-539 CNS) greater than 10 µM, a TGI (SK-MEL-2 melanoma) greater than 10 µM and a TGI (SK-MEL-5 melanoma) greater than 10 µM. The TGI (SK-OV-3 ovarian) was greater than 10 µM, the TGI (SN12C renal) was greater than 10 µM and the TGI (SNB-19 CNS) was greater than 10 µM. For the same molecule, the TGI (SNB-75 CNS) was greater than 10 µM, the TGI (SR leukemia) was greater than 10 µM and the TGI (SW-620 colon) was greater than 10 µM. The TGI (T-47D breast) was greater than 10 µM, the TGI (TK-10 renal) was greater than 10 µM and the TGI (U251 CNS) was greater than 10 µM. For the same molecule, the TGI (UACC-257 melanoma) was greater than 10 µM, the TGI (UACC-62 melanoma) was greater than 10 µM and the TGI (UO-31 renal) was greater than 10 µM.
